# Assay results published in patent publication US6229016A, “Method for treating tumors using 2-aryl-naphthyridin-4-ones” (priority 2000, dated 2001).
# Tests used:
# tubulin [1] = assay: Tubulin polymerization assay; type: biochemical, bovine; conditions: earlier finding, background section; read-out: IC50, inhibitor of tubulin polymerization
# Protocol: Electrophoretically homogeneous bovine brain tubulin was purified as described in E. Hamel, et al. Biochemistry 23:4173 (1984).
# The tubulin polymerization assay was performed as described in S. Kuo, et al. J. Med. Chem. 36:1146 (1993); L. Li, et al. J. Med. Chem. 37:1126 (1994); and L. Li J. Med. Chem. 37:3400 (1994). In brief, tubulin at 1.2 mg/ml (12 μM) was preincubated for 15 min at 26° C. in a 0.24-ml volume of 0.8 M monosodium glutamate (pH 6.6 with NaOH in a 2 M stock solution) with varying drug concentrations. The drug stock solutions were in DMSO, and the final solvent concentration was 4 % (v/v). All concentrations are in terms of the final reaction volume (0.25 ml). The reaction mixtures were chilled on ice, and 10 μl of 10 mM GTP was added to each reaction mixture. Samples were transferred to cuvettes held at 0° C. by an electronic temperature controller in Gilford spectrophotometers. Baselines were established at 350 nm, and polymerization initiated by a temperature jump to 26° C. The jump took about 50 sec to complete. After 20 min, turbidity readings were recorded, and the temperature controller was set to 0C. When depolymerization was complete, turbidity readings were again recorded. […] IC50 values were obtained graphically from inhibition of polymerization by different drug concentrations.
# Electrophoretically, homogeneous bovine brain tubulin was purified as described in Example 6.
# The tubulin polymerization assay was performed as described in Example 6.
# tubulin [2] = assay: Colchicine binding assay; set-up: species or system bovine; conditions: for ICB (% Inhibition) (inhibition of colchicine binding): evaluated only when polymerization IC50 ≤ 1 μM, 5.0 μM inhibitor, 5.0 μM [3H]colchicine, 1.0 μM tubulin
# Protocol: Electrophoretically homogeneous bovine brain tubulin was purified as described in E. Hamel, et al. Biochemistry 23:4173 (1984). Combretastatin A-4 was a generous gift of Dr. G. R Pettit, Arizona State University.
# Incubation was for 20 min at 37° C. Each reaction mixture was filtered under reduced vacuum through a stack of two DEAE-cellulose paper filters, washed with water, and radioactivity quantitated in a liquid scintillation counter.
# […]. with 36' vs. 33'-35', and with 46' vs. 43'-45').
# [3] = test system: central nervous system, lung, ovarian, colon, and renal cancers and melanoma and leukemia cell lines; assay: Cytotoxicity of isolated flavonol in panels of tumor cell lines; type: cell-based; conditions: in vitro
# Description: In the course of this groups search for novel plant-derived potent cytotoxic agents that are active against slow-growing solid tumors, we have isolated several flavonols as antitumor principles from a phytochemically and biologically heretofore uninvestigated plant, Polanisia dodecandra. […]
# [4] = test system: 786-0 renal cancer cell line; assay: NCI in vitro screen, renal cancer 786-0; type: cell-based; conditions: Homo sapiens, read-out: Cytotoxicity log GI50 (converted)
# [5] = test system: SF-295 CNS cancer cell line; assay: NCI in vitro screen, CNS cancer SF-295; type: cell-based; conditions: Homo sapiens, read-out: Cytotoxicity log GI50 (converted)
# [6] = test system: SK-MEL-5 melanoma cell line; assay: NCI in vitro screen, melanoma SK-MEL-5; type: cell-based; conditions: Homo sapiens, read-out: Cytotoxicity log GI50 (converted)
# [7] = test system: HL-60(TB) leukemia cell line; assay: cells; type: cell-based; conditions: Homo sapiens
# [8] = test system: MDA-MB-435 breast cancer cell line; assay: NCI in vitro screen, breast cancer MDA-MB-435; type: cell-based; conditions: Homo sapiens
# [9] = test system: NCI-H460 non-small cell lung cancer cell line; assay: NCI in vitro screen, non-small cell lung cancer NCI-H460; type: cell-based; conditions: Homo sapiens, read-out: Cytotoxicity log GI50 (converted)
# [10] = test system: MDA-N breast cancer cell line; assay: NCI in vitro screen, breast cancer MDA-N; type: cell-based; conditions: Homo sapiens
# [11] = test system: PC-3 prostate cancer cell line; assay: NCI in vitro screen, prostate cancer PC-3; type: cell-based; conditions: Homo sapiens, read-out: Cytotoxicity log GI50 (converted)
# [12] = test system: U-251 CNS cancer cell line; assay: NCI in vitro screen, CNS cancer U-251; type: cell-based; conditions: Homo sapiens, read-out: Cytotoxicity log GI50 (converted)
# [13] = test system: NCI's 60 human tumor cell line; assay: NCI 60 human tumor cell line in vitro screen (average / whole panel); type: cell-based; conditions: calculated from all cell lines tested, molar concentrations, read-out: average log GI50 (converted)
# NCI-H226 cell line = assay: NCI in vitro screen, NCI-H226; type: cell-based; conditions: Homo sapiens, range over four compounds, read-out: log TGI
# Description: Compounds 41-51 and 53-68 were submitted to NCI and assayed in the NCI's in vitro disease-oriented antitumor screen, which involves determination of a test compound's effects on the growth of approximately 60 human tumor cell lines. See, M. R. Boyd, et al. In Cancer: Principles and Practice of Oncology Updates; De Vita, V. T., Hellman, S., Rosenberg, S. A., Eds; J. B. Lippincoft: Philadelphia, pp 1-12 (1989); and A. Monks, et al. J. Natl. Cancer Inst. 83:757 (1991). These lines include leukemia, non-small cell lung, colon, central nervous system (CNS), melanoma, ovarian, renal, prostate, and breast cancers.
# [14] = test system: HCT-116 colon cancer cell line; assay: NCI in vitro screen, colon cancer HCT-116; type: cell-based; conditions: Homo sapiens; HCT-1.16 (head); HCT-116 (footnote); read-out: Cytotoxicity log GI50 (converted)
# [15] = test system: OVCAR-3 ovarian cancer cell line; assay: NCI in vitro screen, ovarian cancer OVCAR-3; type: cell-based; conditions: Homo sapiens, read-out: Cytotoxicity log GI50 (converted)
# [16] = range over four compounds and two cell lines, read-out: log TGI
# [17] = read-out: Cytotoxicity log GI50 (converted)
compound,measurement,setting,value
"COc1ccc(-c2oc3c(OC)c(OC)c(OC)c(O)c3c(=O)c2OC)cc1O [5,3'-dihydroxy-3,6,7,8,4'-pentamethoxyflavone]",IC50,tubulin [1],830 ± 200 nM
same,inhibition of radiolabeled colchicine binding to tubulin,"tubulin [2]; equimolar concentration with colchicine, background section",59%
same,GI50 values,[3],low micromolar to nanomolar concentration range
COc1cccc(-c2cc(=O)c3cc(Cl)cnc3[nH]2)c1 [Compound 49],GI50,[4],427 nM
same,GI50,[5],60.3 nM
same,GI50,[6],126 nM
same,IC (TGI),"[7]; HL-60, H-60 cell line, range over four compounds, read-out: log TGI",0.0398 to 0.0646 µM
same,GI50,"[7]; HL-60(TB), read-out: Cytotoxicity log GI50 (converted)",26.9 nM
same,IC (TGI),[8]; [16],0.0214 to 0.0398 µM
same,GI50,[8]; [17],32.4 nM
same,GI50,[9],63.1 nM
same,IC (TGI),[10]; [16],0.0214 to 0.0398 µM
same,GI50,[10]; [17],31.6 nM
same,GI50,[11],138 nM
same,GI50,[12],200 nM
same,GI50,[13],97.7 nM
same,IC (TGI),NCI-H226 cell line,0.0759 to 0.692 µM
same,GI50,[14],120 nM
same,GI50,[15],490 nM
"COc1ccc(/C=C\c2cc(OC)c(OC)c(OC)c2)cc1O [combretastatin A-4, Combretastatin A-4]",ICB (% Inhibition) (inhibition of colchicine binding),tubulin [2],91 ± 2%
"COc1cc([C@@H]2c3cc4c(cc3[C@H](O)[C@H]3COC(=O)[C@H]23)OCO4)cc(OC)c1OC [podophyllotoxin, reference compound]",ICB (% Inhibition) (inhibition of colchicine binding),tubulin [2],76 ± 5%
